Reference: ChEMBL document CHEMBL3046070, “New N-arylamino biquinoline derivatives: microwave-assisted synthesis and their antimicrobial activities” (2013)
In brackets after ≈: the same amount, converted by molar mass.

Columns and labels:
Type in all cases: functional
Streptococcus pneumoniae = test: Antibacterial activity against Streptococcus pneumoniae MTCC 1936 assessed as growth inhibition after overnight incubation by NCCLS broth microdilution method
Clostridium tetani = test: Antibacterial activity against Clostridium tetani MTCC 449 assessed as growth inhibition after overnight incubation by NCCLS broth microdilution method
Bacillus subtilis = test: Antibacterial activity against Bacillus subtilis MTCC 441 assessed as growth inhibition after overnight incubation by NCCLS broth microdilution method
Vibrio cholerae = test: Antibacterial activity against Vibrio cholerae MTCC 3906 assessed as growth inhibition after overnight incubation by NCCLS broth microdilution method
Escherichia coli = test: Antibacterial activity against Escherichia coli MTCC 443 assessed as growth inhibition after overnight incubation by NCCLS broth microdilution method
Salmonella typhi = test: Antibacterial activity against Salmonella enterica subsp. enterica serovar Typhi MTCC 98 assessed as growth inhibition after overnight incubation by NCCLS broth microdilution method
Candida albicans = test: Antifungal activity against Candida albicans MTCC 227 assessed as growth inhibition after overnight incubation by NCCLS broth microdilution method
Aspergillus fumigatus = test: Antifungal activity against Aspergillus fumigatus MTCC 3008 assessed as growth inhibition after overnight incubation by NCCLS broth microdilution method

## CCn1cc(C(=O)O)c(=O)c2cc(F)c(N3CCNCC3)cc21 [NORFLOXACIN]
Streptococcus pneumoniae
  MIC: 10 µg/mL (≈ 31.3 µM)
Clostridium tetani
  MIC: 50 µg/mL (≈ 157 µM)
Bacillus subtilis
  MIC: 100 µg/mL (≈ 313 µM)
Vibrio cholerae
  MIC: 10 µg/mL (≈ 31.3 µM)
Escherichia coli
  MIC: 10 µg/mL (≈ 31.3 µM)
Salmonella typhi
  MIC: 10 µg/mL (≈ 31.3 µM)

## COC1=CC(=O)C[C@@H](C)[C@]12Oc1c(Cl)c(OC)cc(OC)c1C2=O [GRISEOFULVIN]
Candida albicans
  MIC: 500 µg/mL (≈ 1420 µM)
Aspergillus fumigatus
  MIC: 100 µg/mL (≈ 283 µM)

## NYSTATIN
Candida albicans
  MIC: 100 µg/mL
Aspergillus fumigatus
  MIC: 100 µg/mL

## CCOC(=O)C1=C(N)N(Nc2ccc(C)cc2)C2=C(C(=O)CC(C)(C)C2)C1c1cc2ccccc2nc1Cl (stereo unspecified)
Candida albicans
  MIC: > 1000 µg/mL
Streptococcus pneumoniae
  MIC: 250 µg/mL (≈ 471 µM)
Clostridium tetani
  MIC: 500 µg/mL (≈ 942 µM)
Bacillus subtilis
  MIC: 500 µg/mL (≈ 942 µM)
Vibrio cholerae
  MIC: 125 µg/mL (≈ 235 µM)
Aspergillus fumigatus
  MIC: > 1000 µg/mL
Escherichia coli
  MIC: 250 µg/mL (≈ 471 µM)
Salmonella typhi
  MIC: 250 µg/mL (≈ 471 µM)

## CC1(C)S[C@@H]2[C@H](NC(=O)[C@H](N)c3ccccc3)C(=O)N2[C@H]1C(=O)O [AMPICILLIN]
Streptococcus pneumoniae
  MIC: 100 µg/mL (≈ 286 µM)
Clostridium tetani
  MIC: 250 µg/mL (≈ 715 µM)
Bacillus subtilis
  MIC: 250 µg/mL (≈ 715 µM)
Vibrio cholerae
  MIC: 100 µg/mL (≈ 286 µM)
Escherichia coli
  MIC: 100 µg/mL (≈ 286 µM)
Salmonella typhi
  MIC: 100 µg/mL (≈ 286 µM)

## O=C(O)c1cn(C2CC2)c2cc(N3CCNCC3)c(F)cc2c1=O [CIPROFLOXACIN]
Streptococcus pneumoniae
  MIC: 50 µg/mL (≈ 151 µM)
Vibrio cholerae
  MIC: 25 µg/mL (≈ 75.4 µM)
Escherichia coli
  MIC: 25 µg/mL (≈ 75.4 µM)
Salmonella typhi
  MIC: 25 µg/mL (≈ 75.4 µM)

## CCOC(=O)C1=C(N)N(Nc2ccc(C)cc2)C2=C(C(=O)CC(C)(C)C2)C1c1cc2cc(OC)ccc2nc1Cl (stereo unspecified)
Candida albicans
  MIC: 500 µg/mL (≈ 891 µM)
Streptococcus pneumoniae
  MIC: 100 µg/mL (≈ 178 µM)
Clostridium tetani
  MIC: 125 µg/mL (≈ 223 µM)
Bacillus subtilis
  MIC: 200 µg/mL (≈ 356 µM)
Vibrio cholerae
  MIC: 500 µg/mL (≈ 891 µM)
Aspergillus fumigatus
  MIC: > 1000 µg/mL
Escherichia coli
  MIC: 125 µg/mL (≈ 223 µM)
Salmonella typhi
  MIC: 62.5 µg/mL (≈ 111 µM)

## CCOC(=O)C1=C(N)N(Nc2ccc(Br)cc2)C2=C(C(=O)CC(C)(C)C2)C1c1cc2cc(OC)ccc2nc1Cl (stereo unspecified)
Candida albicans
  MIC: > 1000 µg/mL
Streptococcus pneumoniae
  MIC: 250 µg/mL (≈ 399 µM)
Clostridium tetani
  MIC: 200 µg/mL (≈ 320 µM)
Bacillus subtilis
  MIC: 250 µg/mL (≈ 399 µM)
Vibrio cholerae
  MIC: 200 µg/mL (≈ 320 µM)
Aspergillus fumigatus
  MIC: 500 µg/mL (≈ 799 µM)
Escherichia coli
  MIC: 200 µg/mL (≈ 320 µM)
Salmonella typhi
  MIC: 200 µg/mL (≈ 320 µM)

## GENTAMICIN
Streptococcus pneumoniae
  MIC: 0.5 µg/mL
Clostridium tetani
  MIC: 5 µg/mL
Bacillus subtilis
  MIC: 1 µg/mL
Vibrio cholerae
  MIC: 5 µg/mL
Escherichia coli
  MIC: 0.05 µg/mL
Salmonella typhi
  MIC: 5 µg/mL

## CCOC(=O)C1=C(N)N(Nc2ccccc2)C2=C(C(=O)CC(C)(C)C2)C1c1cc2cc(Cl)ccc2nc1Cl (stereo unspecified)
Candida albicans
  MIC: 1000 µg/mL (≈ 1810 µM)
Streptococcus pneumoniae
  MIC: 100 µg/mL (≈ 181 µM)
Clostridium tetani
  MIC: 200 µg/mL (≈ 363 µM)
Bacillus subtilis
  MIC: 200 µg/mL (≈ 363 µM)
Vibrio cholerae
  MIC: 100 µg/mL (≈ 181 µM)
Aspergillus fumigatus
  MIC: 250 µg/mL (≈ 453 µM)
Escherichia coli
  MIC: 125 µg/mL (≈ 227 µM)
Salmonella typhi
  MIC: 250 µg/mL (≈ 453 µM)

## CCOC(=O)C1=C(N)N(Nc2ccc(Br)cc2)C2=C(C(=O)CC(C)(C)C2)C1c1cc2ccccc2nc1Cl (stereo unspecified)
Candida albicans
  MIC: > 1000 µg/mL
Streptococcus pneumoniae
  MIC: 25 µg/mL (≈ 42 µM)
Clostridium tetani
  MIC: 500 µg/mL (≈ 839 µM)
Bacillus subtilis
  MIC: 250 µg/mL (≈ 420 µM)
Vibrio cholerae
  MIC: 500 µg/mL (≈ 839 µM)
Aspergillus fumigatus
  MIC: > 1000 µg/mL
Escherichia coli
  MIC: 100 µg/mL (≈ 168 µM)
Salmonella typhi
  MIC: 50 µg/mL (≈ 83.9 µM)

## CCOC(=O)C1=C(N)N(Nc2ccc(F)cc2)C2=C(C(=O)CC(C)(C)C2)C1c1cc2cc(OC)ccc2nc1Cl (stereo unspecified)
Candida albicans
  MIC: 1000 µg/mL (≈ 1770 µM)
Streptococcus pneumoniae
  MIC: 250 µg/mL (≈ 442 µM)
Clostridium tetani
  MIC: 250 µg/mL (≈ 442 µM)
Bacillus subtilis
  MIC: 200 µg/mL (≈ 354 µM)
Vibrio cholerae
  MIC: 250 µg/mL (≈ 442 µM)
Aspergillus fumigatus
  MIC: > 1000 µg/mL
Escherichia coli
  MIC: 125 µg/mL (≈ 221 µM)
Salmonella typhi
  MIC: 200 µg/mL (≈ 354 µM)

## CCOC(=O)C1=C(N)N(Nc2ccc(OC)cc2)C2=C(C(=O)CC(C)(C)C2)C1c1cc2ccccc2nc1Cl (stereo unspecified)
Candida albicans
  MIC: 250 µg/mL (≈ 457 µM)
Streptococcus pneumoniae
  MIC: 200 µg/mL (≈ 366 µM)
Clostridium tetani
  MIC: 100 µg/mL (≈ 183 µM)
Bacillus subtilis
  MIC: 250 µg/mL (≈ 457 µM)
Vibrio cholerae
  MIC: 200 µg/mL (≈ 366 µM)
Aspergillus fumigatus
  MIC: 500 µg/mL (≈ 914 µM)
Escherichia coli
  MIC: 50 µg/mL (≈ 91.4 µM)
Salmonella typhi
  MIC: 200 µg/mL (≈ 366 µM)

## CCOC(=O)C1=C(N)N(Nc2ccc(F)cc2)C2=C(C(=O)CC(C)(C)C2)C1c1cc2ccccc2nc1Cl (stereo unspecified)
Candida albicans
  MIC: 250 µg/mL (≈ 467 µM)
Streptococcus pneumoniae
  MIC: 200 µg/mL (≈ 374 µM)
Clostridium tetani
  MIC: 200 µg/mL (≈ 374 µM)
Bacillus subtilis
  MIC: 200 µg/mL (≈ 374 µM)
Vibrio cholerae
  MIC: 200 µg/mL (≈ 374 µM)
Aspergillus fumigatus
  MIC: 500 µg/mL (≈ 935 µM)
Escherichia coli
  MIC: 100 µg/mL (≈ 187 µM)
Salmonella typhi
  MIC: 100 µg/mL (≈ 187 µM)

## CCOC(=O)C1=C(N)N(Nc2ccc(OC)cc2)C2=C(C(=O)CC(C)(C)C2)C1c1cc2cc(OC)ccc2nc1Cl (stereo unspecified)
Candida albicans
  MIC: 1000 µg/mL (≈ 1730 µM)
Streptococcus pneumoniae
  MIC: 250 µg/mL (≈ 433 µM)
Clostridium tetani
  MIC: 250 µg/mL (≈ 433 µM)
Bacillus subtilis
  MIC: 250 µg/mL (≈ 433 µM)
Vibrio cholerae
  MIC: 250 µg/mL (≈ 433 µM)
Aspergillus fumigatus
  MIC: 500 µg/mL (≈ 866 µM)
Escherichia coli
  MIC: 200 µg/mL (≈ 347 µM)
Salmonella typhi
  MIC: 200 µg/mL (≈ 347 µM)

## CCOC(=O)C1=C(N)N(Nc2ccc(OC)cc2)C2=C(C(=O)CC(C)(C)C2)C1c1cc2cc(Cl)ccc2nc1Cl (stereo unspecified)
Candida albicans
  MIC: 1000 µg/mL (≈ 1720 µM)
Streptococcus pneumoniae
  MIC: 500 µg/mL (≈ 860 µM)
Clostridium tetani
  MIC: 250 µg/mL (≈ 430 µM)
Bacillus subtilis
  MIC: 500 µg/mL (≈ 860 µM)
Vibrio cholerae
  MIC: 250 µg/mL (≈ 430 µM)
Aspergillus fumigatus
  MIC: > 1000 µg/mL
Escherichia coli
  MIC: 250 µg/mL (≈ 430 µM)
Salmonella typhi
  MIC: 250 µg/mL (≈ 430 µM)
